Where two headings read alike, the source gives them in different places.
Tests used:
[1] = tested on: Amaranthus rudis (AMATA), tall water hemp; assay: Postemergence herbicide evaluation, growth of Amaranthus rudis (AMATA); assay type: in vivo; conditions: Amaranthus tuberculatus, post-emergence
[2] = tested on: Ambrosia artemisiifolia (AMBEL), common ragweed; assay: Postemergence herbicide evaluation, growth of Ambrosia artemisiifolia (AMBEL); assay type: in vivo; conditions: Ambrosia artemisiifolia, post-emergence
[3] = tested on: Abutilon theophrasti (ABUTH), velvetleaf; assay: Postemergence herbicide evaluation, growth of Abutilon theophrasti (ABUTH); assay type: in vivo; conditions: Abutilon theophrasti, post-emergence
[4] = tested on: Chenopodium album (CHEAL), common lambsquarters; assay: Postemergence herbicide evaluation, growth of Chenopodium album (CHEAL); assay type: in vivo; conditions: Chenopodium album, post-emergence
[5] = Volatility of compounds measured by thermogravimetric analysis (TGA); assay type: physicochemical
[6] = tested on: weeds ABUTH, AMATA, AMBEL, CHEAL, ERICA; assay: Postemergence herbicide evaluation, overall average % weed control (ABUTH, AMATA, AMBEL, CHEAL, ERICA); assay type: in vivo; conditions: post-emergence, read-out: Overall Ave % Weed Control
[7] = tested on: glyphosate resistant Conyza canadensis (L.) (ERICA), horseweed; assay: Postemergence herbicide evaluation, growth of Conyza canadensis (ERICA); assay type: in vivo; conditions: Erigeron canadensis, post-emergence, read-out: Ave. ERICA
[8] = tested on: weeds (ABUTH, AMATA, AMBEL, CHEAL, ERICA); assay: Postemergence herbicide evaluation, overall average % weed control across ABUTH, AMATA, AMBEL, CHEAL, ERICA; assay type: in vivo; conditions: post-emergence, average over the five weeds, read-out: Overall Ave % Weed Control; for pest or weed control at 280 g/ha: 280 g ae/ha; for pest or weed control at 560 g/ha: 560 g ae/ha
[9] = 168 h, read-out: Ave. AMATA, percent reduction in plant size relative to the untreated control
[10] = 336 h, read-out: Ave. AMATA, percent reduction in plant size relative to the untreated control
[11] = 504 h, read-out: Ave. AMATA, percent reduction in plant size relative to the untreated control
[12] = 168 h, read-out: AVE. AMBEL, percent reduction in plant size relative to the untreated control
[13] = 336 h, read-out: AVE. AMBEL, percent reduction in plant size relative to the untreated control
[14] = 504 h, read-out: AVE. AMBEL, percent reduction in plant size relative to the untreated control
[15] = 168 h, read-out: AVE. ABUTH, percent reduction in plant size relative to the untreated control
[16] = 336 h, read-out: AVE. ABUTH, percent reduction in plant size relative to the untreated control
[17] = 504 h, read-out: AVE. ABUTH, percent reduction in plant size relative to the untreated control
[18] = 168 h, read-out: Ave. CHEAL, percent reduction in plant size relative to the untreated control
[19] = 336 h, read-out: Ave. CHEAL, percent reduction in plant size relative to the untreated control
[20] = 504 h, read-out: Ave. CHEAL, percent reduction in plant size relative to the untreated control

O=C(COc1ccc(Cl)cc1Cl)OCc1ccc(COC(=O)COc2ccc(Cl)cc2Cl)cc1 [Compound B1, 1,4-Phenylenebis(methylene) bis(2-(2,4-dichlorophenoxy)acetate)]
pest or weed control at 280 g/ha [1, 9]: 40%
pest or weed control at 560 g/ha [1, 9]: 40%
pest or weed control at 280 g/ha [1, 10]: 25%
pest or weed control at 560 g/ha [1, 10]: 35%
pest or weed control at 280 g/ha [1, 11]: 30%
pest or weed control at 560 g/ha [1, 11]: 48%
pest or weed control at 280 g/ha [2, 12]: 23%
pest or weed control at 560 g/ha [2, 12]: 20%
pest or weed control at 280 g/ha [2, 13]: 18%
pest or weed control at 560 g/ha [2, 13]: 18%
pest or weed control at 280 g/ha [2, 14]: 0%
pest or weed control at 560 g/ha [2, 14]: 5%
pest or weed control at 280 g/ha [3, 15]: 5%
pest or weed control at 560 g/ha [3, 15]: 13%
pest or weed control at 280 g/ha [3, 16]: 8%
pest or weed control at 560 g/ha [3, 16]: 5%
pest or weed control at 280 g/ha [3, 17]: 8%
pest or weed control at 560 g/ha [3, 17]: 3%
pest or weed control at 280 g/ha [4, 18]: 15%
pest or weed control at 560 g/ha [4, 18]: 55%
pest or weed control at 280 g/ha [4, 19]: 25%
pest or weed control at 560 g/ha [4, 19]: 53%
pest or weed control at 280 g/ha [4, 20]: 20%
pest or weed control at 560 g/ha [4, 20]: 33%
TGA Data (rate of weight loss, volatility) [5]: 0.03 µg/min
pest or weed control at 280 g/ha ([6]; 168 h): 19%
pest or weed control at 560 g/ha ([6]; 168 h): 31%
pest or weed control at 280 g/ha ([6]; 336 h): 21%
pest or weed control at 560 g/ha ([6]; 336 h): 29%
pest or weed control at 280 g/ha ([6]; 504 h): 13%
pest or weed control at 560 g/ha ([6]; 504 h): 21%

O=C(COc1ccc(Cl)cc1Cl)OCCOCCOC(=O)COc1ccc(Cl)cc1Cl [Compound B2, Oxybis(ethane-2,1-diyl) bis(2-(2,4-dichlorophenoxy)acetate)]
TGA Data (rate of weight loss, volatility) [5]: 0.04 µg/min
pest or weed control at 280 g/ha ([6]; 168 h): 73%
pest or weed control at 560 g/ha ([6]; 168 h): 75%
pest or weed control at 280 g/ha ([6]; 336 h): 83%
pest or weed control at 560 g/ha ([6]; 336 h): 89%
pest or weed control at 560 g/ha ([6]; 504 h): 94%

O=C(COc1ccc(Cl)cc1Cl)OCOC(=O)c1ccccc1 [Compound E7, (2-(2,4-Dichlorophenoxy)acetoxy)methyl benzoate]
pest or weed control at 280 g/ha ([1]; 168 h, read-out: Ave. AMATA): 78%
pest or weed control at 560 g/ha ([1]; 168 h, read-out: Ave. AMATA): 80%
pest or weed control at 280 g/ha ([1]; 336 h, read-out: Ave. AMATA): 95%
pest or weed control at 560 g/ha ([1]; 336 h, read-out: Ave. AMATA): 85%
pest or weed control at 280 g/ha ([1]; 504 h, read-out: Ave. AMATA): 93%
pest or weed control at 560 g/ha ([1]; 504 h, read-out: Ave. AMATA): 89%
pest or weed control at 280 g/ha ([2]; 168 h, read-out: AVE. AMBEL): 63%
pest or weed control at 560 g/ha ([2]; 168 h, read-out: AVE. AMBEL): 78%
pest or weed control at 280 g/ha ([2]; 336 h, read-out: AVE. AMBEL): 93%
pest or weed control at 560 g/ha ([2]; 336 h, read-out: AVE. AMBEL): 97%
pest or weed control at 280 g/ha ([2]; 504 h, read-out: AVE. AMBEL): 96%
pest or weed control at 560 g/ha ([2]; 504 h, read-out: AVE. AMBEL): 100%
pest or weed control at 280 g/ha ([3]; 168 h, read-out: AVE. ABUTH): 80%
pest or weed control at 560 g/ha ([3]; 168 h, read-out: AVE. ABUTH): 85%
pest or weed control at 280 g/ha ([3]; 336 h, read-out: AVE. ABUTH): 84%
pest or weed control at 560 g/ha ([3]; 336 h, read-out: AVE. ABUTH): 89%
pest or weed control at 280 g/ha ([3]; 504 h, read-out: AVE. ABUTH): 90%
pest or weed control at 560 g/ha ([3]; 504 h, read-out: AVE. ABUTH): 92%
pest or weed control at 280 g/ha ([4]; 168 h, read-out: Ave. CHEAL): 68%
pest or weed control at 560 g/ha ([4]; 168 h, read-out: Ave. CHEAL): 75%
pest or weed control at 280 g/ha ([4]; 336 h, read-out: Ave. CHEAL): 73%
pest or weed control at 560 g/ha ([4]; 336 h, read-out: Ave. CHEAL): 93%
pest or weed control at 280 g/ha ([4]; 504 h, read-out: Ave. CHEAL): 70%
pest or weed control at 560 g/ha ([4]; 504 h, read-out: Ave. CHEAL): 70%
pest or weed control at 280 g/ha ([7]; 168 h): 65%
pest or weed control at 560 g/ha ([7]; 168 h): 70%
pest or weed control at 280 g/ha ([7]; 336 h): 83%
pest or weed control at 560 g/ha ([7]; 336 h): 88%
pest or weed control at 280 g/ha ([7]; 504 h): 93%
pest or weed control at 560 g/ha ([7]; 504 h): 95%
TGA Data (rate of weight loss, volatility) [5]: 1.5 µg/min
pest or weed control at 280 g/ha ([8]; 168 h, 7 DAA): 71%
pest or weed control at 560 g/ha ([8]; 168 h, 7 DAA): 78%
pest or weed control at 280 g/ha ([8]; 336 h, 14 DAA): 85%
pest or weed control at 560 g/ha ([8]; 336 h, 14 DAA): 90%
pest or weed control at 280 g/ha ([8]; 504 h, 21 DAA): 88%
pest or weed control at 560 g/ha ([8]; 504 h, 21 DAA): 89%
